Laboratory results from patent US11504395B2, “Oral pyrophosphate for use in reducing tissue calcification” (Stichting Het Nederlands Kanker Instituut-Antoni van …, priority 2016, dated 2022).
Where two headings read alike, the source gives them in different places.

Legend:
[1] = tested on: Tiptoe walking (ttw) mice
Procedure: (§1) All animals were housed in approved animal facilities at the Research Center for Natural Sciences, Hungarian Academy of Sciences. Mice were kept under routine laboratory conditions with 12 hour light-dark cycle with ad libitum access to water and chow. The RCNS, Hungarian Academy of Sciences Institutional Animal Care and Use Committees approved this study. Experiments have been conducted according to national guidelines. Cryo injury was performed and tissue calcium content was determined as described by Brampton, et al. ((2014) Am J Pathol. 184, 159-70). Calcification of the vibrissae was studied by histochemistry following the method described Klement, et al. ((2005) Mol Cell Biol. 25, 8299-310. The number of calcified vibrissae (hair capsules) was counted independently and the onset of tiptoe walking phenotype was determined by two investigators in a blinded fashion.
Tiptoe walking (ttw) mice have an inactivating mutation in Enpp1 and represent a model for GACI.

Abcc6−/− mice = tested on: Abcc6−/− mice
Procedure: The calcium content of heart tissue was determined.
as §1
Abcc6^−/− mice faithfully recapitulate human PXE, with calcifying lesions found in skin, eyes and blood vessels. A drawback of the Abcc6^−/− mice is the relatively late onset of the first lesions, making this model less convenient for rapid screening of new treatments.

O.O.O.O.O.O.O.O.O.O.O=P([O-])([O-])OP(=O)([O-])[O-].[Na+].[Na+].[Na+].[Na+] [PPi, Sodium pyrophosphate tetrabasic decahydrate]
calcification of the dermal sheet surrounding the vibrissae ([1]; 10 mM oral PPi during pregnancy and lactation and continued in pups after weaning, ttw mice, FIG. 3): greatly reduced
calcification of the dermal sheet surrounding the vibrissae ([1]; PPi provided during lactation, ttw mice): no significant impact
calcification of the dermal sheet surrounding the vibrissae ([1]; ttw pups treated with PPi only after weaning): no different from the control-treated group
cardiac calcification (ICC) induced by cryo-injury (Abcc6−/− mice; IP delivery, 6 mg PPi/kg body weight for 7 days, Abcc6−/− mice, data not shown): reduced
PPi concentration giving maximal inhibition of ICC (Abcc6−/− mice; PPi in drinking water, dose-dependent inhibition, FIG. 1): 10 mM
